According to patent publication US8173863B2, “Sucrose biosensors and methods of using the same” (Carnegie Institution of Washington, priority 2005, dated 2012):

Tests used:
[1] = molecular target: Agrobacterium tumefaciens ThuE (AtThuE) sucrose binding protein carrying N192D (SEQ ID NO: 2) fused between ECFP and EYFP, sensor FLIPsuc4μ (FLIPsuc), wt (indic (Agrobacterium fabrum, UniProt A9CF11, N212D)); assay: in vitro FRET titration of purified sensor FLIPsuc4μ; conditions: for recognition (binding): even after addition of higher sugar concentrations (50× Kd); for binding (extent relative to sucrose): 5× Kd (20 μM), FRET micro plate assay (FIG. 4); for affinity relative to that for sucrose: FIG. 1C titration curves; for Δratio (maximum ratio change): in vitro, no binding to saturated binding
Description: (§1) Because the maltose/trehalose/sucrose binding protein from Agrobacterium tumefaciens (AtThuE) is 78.9% identical over predicted mature region of the SmThuE protein (SEQ ID NO: 2) and is 21.4% homologous to the maltose binding protein from E. coli (malE), we attempted to clone the AtThuE binding protein. To isolate the gene, a PCR product from genomic Agrobacterium tumefaciens (strain C58C1) DNA encoding mature AtThuE without signal sequence and stop codon was cloned into the KpnI site between ECFP and EYFP genes (FIG. 1A). The chimeric gene was inserted into pRSET (Invitrogen) and transferred to E. coli BL21(DE3)Gold (Stratagene). […] It is unknown whether this difference corresponds to a mutation or natural variation. Since N192D was outside the binding pocket and since AtThuE carrying the mutation was functional as a sugar sensor (see Table 1), all further experiments were carried out with the nanosensor named FLIPsuc4μ carrying the mutation N192D. FLIPsuc proteins were extracted from BL21(DE3)gold and purified as described (Fehr et al. 2002).
(§2) A DNA fragment encoding the mature Agrobacterium tumefaciens maltose/trehalose/sucrose BP protein was fused between the ECFP and EYFP sequences as described above. The chimeric gene was expressed in E. coli and the protein product purified and assayed for substrate specificity.
(§3) Substrate titration curves and substrate specificity analysis were performed on Safire (Tecan) fluorometer. ECFP was excited at 433 nm and emission was set to 485 nm and 528 nm for ECFP and EYFP, respectively (bandwidth 12 nm). All in vitro analyses were performed in 20 mM MOPS buffer at pH 7. FRET was determined as EYFP-ECFP emission intensity ratio. Using the change in ratio upon ligand binding, binding constants (Kd) were determined by fitting substrate titration curves to equation 1: S=1−(r−rmin)(rmax−rmin)=[S]b/[P]t=n[S]/(Kd+[S]), where [S] is substrate concentration; [S]b, concentration of bound substrate; n, number of binding sites; [P]t, total concentration of binding protein; r, ratio; rmin, minimum ratio in absence of ligand; rmax, maximum ratio at saturation. Hill coefficients were determined using Hill equation 2: S=(n[S]^n)/(Kd+[S]^n).
(§4) SmThuE is mainly functioning as a trehalose and maltose binding protein. Sucrose is thought to be transported to a lesser extent. FLIPsuc4μ was therefore incubated with trehalose, maltose and other related sugars to test for its binding capacities. Substrate-induced conformational changes were measured using FRET in micro plate assays. […] Maltose and glucose were chosen for further analysis of FLIPsuc4μ and its mutants since they are important sugars in plants and might therefore interfere with sucrose measurements in vivo. […] Most mutants show similar patterns with higher affinity for maltose than sucrose. FLIPsuc-10μ is the most significant example with an 83 times higher affinity for maltose than sucrose (Table 1). The D115 mutants both show the highest affinity for maltose compared to sucrose and […], but to a different extent.

[2] = tested on: Alicyclobacillus acidocaldarius maltose uptake; conditions: cited from earlier work
[3] = molecular target: Agrobacterium tumefaciens AtThuE sensor FLIPsuc4μ variant D115E (FLIPsuc3m, FLIPsucD115E) (Agrobacterium fabrum, UniProt A9CF11, D135E/N212D); assay: in vitro FRET titration of affinity mutant FLIPsuc3m; type: binding; conditions: for Δratio (delta ratio): no binding to saturated binding
Experimental: as §3
(§5) To expand the dynamic range of the sucrose sensor, site directed mutagenesis was used as described above to lower the binding affinity of the sucrose binding domain. Affinity mutants of FLIPsuc4μ were generated. Alignment together with modeling of AtThuE with maltose binding proteins that have been crystallized helped predict residues important for ligand binding. […] Mutant forms carrying substitutions F113A, D115A, D115E, D115N, W244A, Y246A and W283A were generated using Kunkel mutagenesis (Kunkel et al. 1991) in the mutant background of FLIPsuc41t. The affinity mutants were designated as FLIPsucF113A, FLIPsucW283A, FLIPsucD115A, FLIPsucD115E, FLIPsucY246A, and FLIPsucW244A. All six mutants have lower affinities for sucrose than that of FLIPsuc4μ, with a Kd value varying from 10 μM to the higher mM range (Table 1). The starting ratio between EYFP and ECFP ranges from 1.4 to close to 2.0, which is also similar to what has been seen in other sugar sensors (FLIPmal, FLIPglu and FLIPrib). Introducing substitution F113A into the ThuE moiety of FLIPsuc4μ produced FLIPsuc10μ, which has a binding constant (Kd) of 10 μM for sucrose, thus providing a range for sucrose quantification between at least 1 μM and 90 μM (Table 1).

[4] = molecular target: Agrobacterium tumefaciens ThuE (AtThuE) sucrose binding protein carrying N192D (SEQ ID NO: 2) fused between ECFP and EYFP, sensor FLIPsuc4μ (FLIPsuc), wt (indicator SEQ ID NO: 4) (Agrobacterium fabrum, UniProt A9CF11, N212D); assay: in vitro FRET titration of purified sensor FLIPsuc4μ
Description: as §1, §2, §3, §4

[5] = molecular target: Agrobacterium tumefaciens AtThuE sensor FLIPsuc4μ variant D115A (FLIPsuc1m, FLIPsucD115A) (Agrobacterium fabrum, UniProt A9CF11, D135A/N212D); assay: in vitro FRET titration of affinity mutant FLIPsuc1m; type: binding; conditions: for Δratio (delta ratio): no binding to saturated binding
Experimental: as §3, §5

[6] = molecular target: Agrobacterium tumefaciens AtThuE sensor FLIPsuc4μ variant Y246A (FLIPsuc15m, FLIPsucY246A) (Agrobacterium fabrum, UniProt A9CF11, N212D/Y266A); assay: in vitro FRET titration of affinity mutant FLIPsuc15m; type: binding; conditions: for Δratio: in vitro, no binding to saturated binding
Experimental: as §3, §5

[7] = molecular target: Agrobacterium tumefaciens AtThuE sensor FLIPsuc4μ variant W283A (FLIPsuc88μ, FLIPsucW283A) (Agrobacterium fabrum, UniProt A9CF11, N212D/W303A); assay: in vitro FRET titration of affinity mutant FLIPsuc88μ; type: binding; conditions: for Kd / Δratio: in vitro; for Δratio: no binding to saturated binding
Experimental: as §3, §5

[8] = molecular target: Agrobacterium tumefaciens AtThuE sensor FLIPsuc4μ variant F113A (FLIPsuc10μ, FLIPsucF113A) (Agrobacterium fabrum, UniProt A9CF11, F133A/N212D); assay: in vitro FRET titration of affinity mutant FLIPsuc10μ; type: binding; conditions: for Δratio (change in ratio): in vitro, no binding to saturated binding
Experimental: as §3, §5

[9] = molecular target: Agrobacterium tumefaciens AtThuE sensor FLIPsuc4μ variant W244A (FLIPsuc46m, FLIPsucW244A) (Agrobacterium fabrum, UniProt A9CF11, N212D/W264A); assay: in vitro FRET titration of affinity mutant FLIPsuc46m; type: binding; conditions: for Δratio: in vitro, no binding to saturated binding
Experimental: as §3, §5

[10] = molecular target: Alicyclobacillus acidocaldarius maltose binding protein (AaMalE); conditions: cited from earlier work
[11] = molecular target: Agrobacterium tumefaciens AtThuE sensor FLIPsucW283A with linker shortened by 18 amino acids (FLIPsucW283A-18AA, FLIPThuEW283A-18AA) (Agrobacterium fabrum, UniProt A9CF11, N212D/W303A); assay: FRET ratio change of short-linker sensor FLIPsucW283A-18AA; type: binding; conditions: FIG. 3
Experimental: as §3
In an attempt to improve the delta ratio of the sucrose sensor the sensor containing the W283A mutation was cloned into a construct with a shorter linker sequence between the GFP variants and the binding protein. Deuschle et al. (2005) has shown that the length of the linker sequence plays a major role in the maximum change in ratio. A construct corresponding to FLIPglu600μΔ5 was constructed which gives a sucrose sensor whose linker was shortened by 18 amino acids (FLIPsucW283A-18AA). […]

[12] = molecular target: Agrobacterium tumefaciens AtThuE sensor FLIPsuc4μ variant D115N (Agrobacterium fabrum, UniProt A9CF11, D135N/N212D); assay: FRET ratio change of D115N mutant; type: binding
Experimental: as §3
To expand the dynamic range of the sucrose sensor, site directed mutagenesis was used as described above to lower the binding affinity of the sucrose binding domain. Affinity mutants of FLIPsuc4μ were generated. Alignment together with modeling of AtThuE with maltose binding proteins that have been crystallized helped predict residues important for ligand binding. […]

[13] = 20 mM MOPS pH 7, FRET titration

With `OCC1(O)OC[C@@H](O)[C@@H](O)[C@@H]1O` (some centres unmarked) [Fructose] the “recognition (binding)” value [1] was “not recognized”.
For `C[C@H]1O[C@H](O[C@H]2[C@H](O)[C@@H](O)[C@@H](O[C@H]3[C@H](O)[C@@H](O)C(O)O[C@@H]3CO)O[C@@H]2CO)[C@H](O)[C@@H](O)[C@@H]1N[C@H]1C=C(CO)[C@@H](O)[C@H](O)[C@H]1O` (some centres unmarked) [acarbose], the “inhibition of uptake of radiolabeled maltose” value (from here on “inhibition”) [2] is listed as “inhibited”.
For `OC[C@H]1O[C@@H](O[C@H]2[C@H](O)[C@@H](O)C(O)O[C@@H]2CO)[C@H](O)[C@@H](O)[C@@H]1O` (some centres unmarked) [cellobiose], the “recognition (binding)” value [1] was “not recognized”.
In the case of `OC[C@H]1OC(O)[C@H](O)[C@@H](O)[C@H]1O` (some centres unmarked) [galactose], the “recognition (binding)” value [1] is reported as “not recognized”.
For `OC[C@H]1OC(O)[C@H](O)[C@@H](O)[C@@H]1O` (some centres unmarked) [glucose], the Kd [3, 13] was 9.11 mM, the Kd ([3]; FRET titration) was 9.1 mM and the “Δratio (delta ratio)” value [3] was 0.44. The Kd [4] was 0.027 mM, the “binding (extent relative to sucrose)” value [1] was “to lesser extent” and the “affinity relative to that for sucrose” value [1] was “in the same range as that for sucrose”. The “Δratio (maximum ratio change)” value [1] was 0.18, the Kd [5, 13] was 16.2 mM and the Kd ([5]; FRET titration) was 16 mM. The “Δratio (delta ratio)” value [5] was 0.50, the Kd [6] was 0.554 mM and the Δratio [6] was 0.07. For the same molecule, the Kd [7, 13] was 7.21 mM, the Kd ([7]; FRET titration) was 7.2 mM and the Δratio [7] was 0.21. For the same molecule, the Kd [8] was 0.106 mM and the “Δratio (change in ratio)” value [8] was 0.12.
For `OC[C@H]1O[C@H](O[C@H]2[C@H](O)[C@@H](O)C(O)O[C@@H]2CO)[C@H](O)[C@@H](O)[C@@H]1O` (some centres unmarked) [maltose], the Kd [9] was 26.5 mM, the Δratio [9] was 0.42 and the Kd [3, 13] was 1.53 mM. For the same molecule, the Kd ([3]; FRET titration) was 1.5 mM, the “Δratio (delta ratio)” value [3] was 0.39 and the Kd [4] was 0.00023 mM. The “binding (extent relative to sucrose)” value [1] was “to the same extent or better than sucrose”, the “affinity relative to that for sucrose” value [1] was “higher” and the “Δratio (maximum ratio change)” value [1] was 0.21. For the same molecule, the Kd [5, 13] was 0.051 mM, the “Δratio (delta ratio)” value [5] was 0.37 and the Kd [6] was 0.056 mM. The Δratio [6] was 0.14, the Kd [7, 13] was 0.265 mM and the Δratio [7] was 0.25. For the same molecule, the Kd [8] was 0.00012 mM, the “Δratio (change in ratio)” value [8] was 0.12 and the Kd [10] was 0.0015 mM.
For `OC[C@H]1O[C@H](O[C@H]2[C@H](O)[C@@H](O)[C@@H](O[C@H]3[C@H](O)[C@@H](O)[C@@H](O[C@H]4[C@H](O)[C@@H](O)C(O)O[C@@H]4CO)O[C@@H]3CO)O[C@@H]2CO)[C@H](O)[C@@H](O)[C@@H]1O` (some centres unmarked) [maltotetraose], the “inhibition” value [2] is given as “inhibited”.
For `OC[C@H]1O[C@H](OC[C@H]2OC(O)(CO)[C@@H](O)[C@@H]2O)[C@H](O)[C@@H](O)[C@@H]1O` (some centres unmarked) [palatinose], the “binding (extent relative to sucrose)” value [1] was “to lesser extent”.
For `OC[C@H]1O[C@@](CO)(O[C@H]2O[C@H](CO)[C@@H](O)[C@H](O)[C@H]2O)[C@@H](O)[C@@H]1O` [sucrose], the Kd [9] was 46.2 mM, the Δratio [9] was 0.4 and the “ratio change relative to original construct (FLIPsucW283A)” value [11] was 3 fold. The Kd [3, 13] was 2.87 mM, the Kd ([3]; FRET titration) was 2.9 mM and the “Δratio (delta ratio)” value [3] was ~0.4. For the same molecule, the “Δratio (delta ratio)” value ([3]; listed as Sucrose) was 0.36, the Kd [4] was 0.0037 mM and the “change in FRET on titration” value ([1]; concentration-dependent, FIG. 1B) was “concentration-dependent decrease in FRET”. For the same molecule, the “Δratio (maximum ratio change)” value ([1]; listed as Sucrose) was 0.18, the Hill coefficient ([1]; sucrose titration, pH 7) was 1.04 and the Kd [5, 13] was 1.35 mM. For the same molecule, the Kd ([5]; FRET titration) was 1.4 mM, the “Δratio (delta ratio)” value [5] was “at least 0.6” and the “Δratio (delta ratio)” value ([5]; listed as Sucrose) was 0.68. It also gave a Kd [6] of 14.6 mM, a Δratio [6] of 0.14 and a Kd [7, 13] of 0.088 mM. For the same molecule, the Δratio [7] was 0.29, the “affinity for sucrose relative to maltose” value ([7]; ratio of Kd) was “three times higher than for maltose” and the Kd [8] was 0.01 mM. For the same molecule, the “Δratio (change in ratio)” value [8] was 0.1-0.15, the “Δratio (change in ratio)” value ([8]; listed as Sucrose) was 0.12 and the “change in ratio upon addition of sucrose” value [12] was “no longer seen”.
With `OC[C@H]1O[C@H](O[C@H]2O[C@H](CO)[C@@H](O)[C@H](O)[C@H]2O)[C@H](O)[C@@H](O)[C@@H]1O` [trehalose] the “binding (extent relative to sucrose)” value [1] was “to the same extent or better than sucrose”.
In the case of `OC[C@H]1OC(O)(CO)[C@@H](O[C@H]2O[C@H](CO)[C@@H](O)[C@H](O)[C@H]2O)[C@@H]1O` (some centres unmarked) [turanose], the “binding (extent relative to sucrose)” value [1] is reported as “to the same extent or better than sucrose”.
For cyclodextrins, the “inhibition” value [2] is listed as “inhibited”.
